Data from the supplement of paper PMC8253809.

Assays:
HGGX42 = H3.3 G34R paediatric high-grade glioma line; assay: growth inhibition relative to DMSO (0) and positive control (1) (fraction); higher = more growth inhibition
Protocol: (§1)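 Paxalisib (GDC0084) x mirdametinib (PD0325901) dose matrix on pHGG cell lines and astrocyte controls, 7 days, adherent 384-well. CellTiter-Glo RLU was normalised (no log2) to fractional activity between DMSO (0) and the positive control (1). Each combination was tested in two plate orientations.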

HABS = astrocyte control; assay: as above
Protocol: as §1

O=C(NOC[C@H](O)CO)c1ccc(F)c(F)c1Nc1ccc(I)cc1F + CC1(C)OCCn2c1nc1c(N3CCOCC3)nc(-c3cnc(N)nc3)nc12 [GDC0084]
growth inhibition
Conditions	compound 1 concentration 0.009766 µM	compound 1 concentration 0.01953 µM	compound 1 concentration 0.03906 µM	compound 1 concentration 0.07812 µM	compound 1 concentration 0.15625 µM	compound 1 concentration 0.3125 µM	compound 1 concentration 0.625 µM	compound 1 concentration 1.25 µM	compound 1 concentration 5 µM	compound 1 concentration 20 µM
HABS, compound 2 concentration 0.03906 µM	-0.277	-0.277	-0.363	-0.35	-0.36	-0.157	0.0702	0.206	0.655	0.785
HABS, compound 2 concentration 0.07812 µM	-0.0837	-0.115	-0.185	-0.276	-0.182	-0.0585	0.174	0.282	0.686	0.84
HABS, compound 2 concentration 0.15625 µM	0.00867	-0.00819	-0.125	-0.152	-0.102	0.0679	0.212	0.368	0.765	0.893
HABS, compound 2 concentration 0.3125 µM	0.0584	0.00491	-0.0298	-0.035	-0.004	0.119	0.251	0.39	0.784	0.918
HABS, compound 2 concentration 0.625 µM	0.158	0.129	0.116	0.0817	0.117	0.224	0.337	0.487	0.849	0.948
HABS, compound 2 concentration 1.25 µM	0.352	0.341	0.305	0.259	0.336	0.387	0.482	0.573	0.912	0.98
HABS, compound 2 concentration 5 µM	0.731	0.725	0.702	0.703	0.706	0.689	0.739	0.792	0.974	0.997
HABS, compound 2 concentration 20 µM	0.963	0.956	0.951	0.939	0.938	0.927	0.938	0.957	0.998	1
HGGX42, compound 2 concentration 0.03906 µM	0.121	0.215	-0.0211	0.146	-0.0192	0.0136	0.0247	0.074	0.354	0.554
HGGX42, compound 2 concentration 0.07812 µM	0.188	0.255	0.106	0.265	0.148	0.0907	0.211	0.153	0.575	0.609
HGGX42, compound 2 concentration 0.15625 µM	0.307	0.29	0.478	0.322	0.224	0.377	0.32	0.341	0.477	0.686
HGGX42, compound 2 concentration 0.3125 µM	0.494	0.466	0.484	0.515	0.431	0.424	0.294	0.326	0.507	0.716
HGGX42, compound 2 concentration 0.625 µM	0.673	0.632	0.625	0.647	0.57	0.606	0.602	0.528	0.674	0.8
HGGX42, compound 2 concentration 1.25 µM	0.782	0.743	0.746	0.753	0.748	0.706	0.723	0.703	0.803	0.895
HGGX42, compound 2 concentration 5 µM	0.875	0.86	0.872	0.883	0.882	0.872	0.881	0.876	0.93	0.979
HGGX42, compound 2 concentration 20 µM	0.898	0.898	0.901	0.911	0.908	0.899	0.907	0.908	0.956	0.986
